Tested on: varicella-zoster virus (VZV) TK− (07/1)
Test: microbe, parasite or virus in culture
Assay type: cell-based
Conditions: read-out: EC50 VZV TK− (07/1)

| Molecule | EC50 [µM] |
| --- | --- |
| CCCCCCCCCCCCCCCCOCCCOP(=O)(CC=C(COC(C)=O)COc1cc(Cl)nc(N)n1)OCOC(=O)OC(C)C (mixture of isomers) [Compound (8), [(E/Z)-2′-[(2-amino-6-chloro-pyrimidin-4-yl)oxymethyl]-4-[3-hexadecoxypropoxy(isopropoxycarbonyloxymethoxy)phosphoryl]but-2′-enyl]acetate] | > 20 |
| CCCCCCCCCCCCCCCCOCCCOP(=O)(C/C=C/COc1cc(N)nc(N)n1)OCOC(=O)OC(C)C (stereo not drawn) [Compound (2), [[(E)-4-(2,6-diaminopyrimidin-4-yl)oxybut-2′-enyl]-(3-hexadecoxypropoxy)phosphoryl]oxymethyl isopropyl carbonate] | 0.24 |
| [(E/Z)-2-[[2-[bis(tert-butoxycarbonyl)amino]-6-methoxy-pyrimidin-4-yl]oxymethyl]-4-[3-hexadecoxypropoxy(isopropoxycarbonyloxymethoxy)phosphoryl]but-2′-enyl]acetate [Compound (7)] | > 20 |

Reference: patent publication US11603380B2 (Centre national de la recherche scientifique, priority 2018, dated 2023)
